# Where two headings read alike, the source gives them in different places.
# Legend:
# DCN1 protein = DCN1 protein (Homo sapiens (Human), UniProt Q96GG9); test: Intact Protein MS Analysis with the RapidFire-TOF System (covalent adduct formation); format: binding; conditions: MS Emax; 400 nM DCN1, 3 hours at room temperature
# Summary of the method: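 Tag-cleaved human DCN1 (400 nM) expressed in E. coli, in 25 mM Tris-HCl, 200 mM NaCl, 1 mM DTT, was incubated with 11 compound concentrations for 3 h at room temperature and quenched with 0.2% formic acid. Intact-protein Q-TOF MS with deconvolution detected the compound adduct mass.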
# fetal hemoglobin protein = test: HbF HPLC Cell Culture Assay; format: cell-based; conditions: for EC50: 336 h, HbF induction, Day 14 of culture; for Hemoglobin HPLC Ymax obs (%): relative to a control compound
# Method: A Cell Culture Assay was performed to evaluate the ability of compounds to induce fetal hemoglobin in a cell culture. The amount fetal hemoglobin protein induced was measured by HPLC.
# Cell culture began on Day −4 (thaw day). Thaw buffer was prepared by sterile filtering 6 mL of Human Serum Albumin and 144 mL of PBS to make sterile 1% I/PBS. Cells were removed from liquid nitrogen storage and mostly thawed in a 37° C. water bath. Once the ice in the cryovials was melted, cells were transferred quickly into a 50 mL conical tube. Cryovial was rinsed once with thaw buffer and buffer was transferred over to the conical tube as well. Next, doubling volumes of thaw buffer was added to the conical and gently swirled for ˜30 seconds to one minute (for example: 2 mL was added and swirled, then 4 mL, then 8 mL, and so on) until the volume in the conical is 32 mL. Cells and buffer were centrifuged at 300G for 8 minutes, and the supernatant was aspirated. Another 32 mL of thaw buffer was added slowly, swirling the tube. The tube was again centrifuged at 300G for 8 minutes and the supernatant was aspirated. Cells were counted by resuspending in 1 mL of expansion media and counting with AOPI to determine the concentration of cells/mL.
# On day 2, Passage & Treatment Day, each cell culture well was counted. Next fresh CD34 Expansion Media was made which contained StemSpan SFEM, CC100 and TPO all from StemCell technologies. Appropriate volume of cells was collected, centrifuged at 300 g and resuspended in fresh media. Cells were plated in treatment format at a density of 200,000 cells/ml, 25,000 cells/well. Finally, they were treated with test compounds as well as positive and negative controls.
# On Days 0, 3 & 5 the same process was carried out. First, each cell culture well was counted. Next Phase 1 Erythroid Differentiation Media was freshly made, which contained StemSpan SFEM, 2.5 U/ml EPO, 0.5 mg/ml Holo-TF, 1× Glutamax, 5 μl/ml chemically defined lipid mixture, 10 ng/ml insulin, 50 ng/ml SCF, 10 ng/ml IL-3. Appropriate volume of cells was collected, centrifuged at 300 g and resuspended in fresh media. Cells should now be in fresh wells at a density of 100,000 cells/ml. 60,000 cells, 60,000 cells and 100,000 cells for days 0, 3, 5 respectively. Finally, fresh compound was added to each well at each timepoint (Days 0, 3 & 5).
# On Day 7 media and cell culture density changes. Each cell culture well was counted. Next, Phase 2 Erythroid Differentiation Media was freshly made, which contains StemSpan SFEM, 2.5 U/ml EPO, 0.5 mg/ml Holo-TF, 1× Glutamax, 5 μl/ml chemically defined lipid mixture, 10 ng/ml insulin, 50 ng/ml SCF. Appropriate volume of cells was collected, centrifuged at 300 g and resuspended in fresh media. Cells were plated in fresh wells at a density of 500,000 cells/ml, 300,000 cells/well. Finally, fresh compound was added to each well at Day 7 timepoint.
# On Day 10 media formulation is once again changed. Each cell culture well was counted. Fresh Phase 3 Erythroid Differentiation Media was made which contains StemSpan SFEM, 2.5 U/ml EPO, 0.5 mg/ml Holo-TF, 1× Glutamax, 5 μl/ml chemically defined lipid mixture, 10 ng/ml insulin. Appropriate volume of cells was collected, centrifuged at 300 g and resuspended in fresh media. Cells were plated in fresh wells at a density of 500,000 cells/ml, 500,000 cells/well. Finally, fresh compound was added to each well at Day 10 timepoint.
# On Day 12 the cell density is once again changed. Each cell culture well was counted. Fresh Phase 3 Erythroid Differentiation Media was made. Appropriate volume of cells was collected, centrifuged at 300 g and resuspended in fresh media. Cells were plated in fresh wells at a density of 1,000,000 cells/ml, 1,000,000 cells/well. Finally fresh compound was added to each well.
# Day 14 (18th day of experiment) refers to the terminal day of culture. Each cell culture well was counted. Next between 150K and 650K cells were placed in a uniquely labeled 1.5 ml standard tube. […]
# [1] = molecular target: T1, DCN1 (DCUND1) protein PONY domain (Homo sapiens (Human), UniProt Q96GG9); test: TR-FRET assay, DCN1 binding with FAM-labeled probe
# Summary of the method: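 TR-FRET ratio (Tb-DCN1 to FAM-probe) read at 1, 5 and 24 hrs after compound addition. Protein: recombinant PONY domain from E. coli, biotinylated and coupled to streptavidin terbium. Either 5 nM DCN1 with 20 nM FAM-probe, or 0.31 nM DCN1 with 100 nM FAM-labelled plus 800 nM unlabelled probe.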
# [2] = test system: Cullin-3 (CUL3) neddylation; test: AlphaLISA assay for Cullin-3 (CUL3) neddylation in TF 1 cells; format: cell-based; conditions: Homo sapiens, TF-1, 3 h, 3 hours treatment
# Summary of the method: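 TF 1 cells in unsupplemented IMDM treated with compound concentrations for 3 h, then lysed. CUL3 neddylation detected by AlphaLISA (biotinylated anti-NEDD8, anti-CUL3 acceptor beads overnight, streptavidin donor beads 1 h); normalized to vehicle (0%) and 1 μM DI-1548 (100%), IC50 from Hill fits.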
# [3] = molecular target: T1, DCN1 (DCUND1) protein PONY domain; test: Off-rate measurement of reversible covalent molecules (jump dilution TR-FRET with Cy5 probe); format: binding
# Excerpt: A typical covalent compound is assumed to stay bound to a protein for at least the life of that protein in the cell. In reality, there is a range of how long a covalent compounds remains bound before a reverse reaction takes place. Thus, some covalent bonds can be labeled as reversible as their reverse reaction takes place in a measurable amount of time under physiological conditions. The assay capitalizes on the range of covalent binders by using a high affinity covalent binder as a probe to displace the more reversible binders in an adaptation of the jump dilution method.
# In this version of the jump dilution method, the increase in covalent probe binding over time was measured through a TR-FRET reaction between the covalent probe and the biotinylated target protein.
# The recombinant form of the DCN1 (DCUND1) protein PONY domain was produced using an E. coli expression system at Viva Biotech (China). The DCN1 protein was biotinylated (EZ sulfo-NHS-LC-biotin; Thermofisher) for labeling with streptavidin terbium (Tb) cryptate in the reaction. This biotinylated protein was used in two forms of the TR-FRET assay as described below.
# The off-rate measurement is executed in two steps based on the jump dilution method. […] The greatest dilution allowed within the constraints of the assay was chosen. These factors allow a competitive advantage for the covalent probe to replace the test compound when that compound releases from the target protein. The actual measure is the rate of increased TR-FRET signal as the covalent probe replaces the test compound over time. […] The resulting time dependent curve of the TR-FRET signal is fit to the following equation:
# Y=Y0+(Plateau−Y0)*(1−exp(−K*x))
# K is the rate constant (1/unit of time). The residence time is defined as the inverse of K, the rate constant. The half-life is calculated as ln(2)/K.
# [4] = molecular target: DCN2 (DCUND2) protein PONY domain (Homo sapiens (Human), UniProt Q6PH85); test: Measurement of Kinact/KI in the DCN2 TR-FRET Assay; format: binding; conditions: for Ki / kinact: time-dependent IC50 over 24 hrs
# Method: A TR-FRET Assay was performed to evaluate the ability of the compounds to bind DCN-2.
# The time resolved—Forster's resonance energy transfer (TR-FRET) assay was designed following the protocol established in (Scott et al., Nat Chem Biol. 2017 August; 13(8): 850-857). A recombinant form of the DCN2 (DCUND2) protein PONY domain was produced using an E. coli expression system at Viva Biotech China. The DCN2 protein was biotinylated (EZ sulfo-NHS-LC-biotin; Thermofisher) for labeling with 2.5 nM streptavidin terbium (Tb) cryptate in the reaction. The probe was changed to a non-covalent DCN1 inhibitor labeled with carboxyfluorescein (FAM; Zhou et al, Nat Commun. 2017; 8: 1150). Buffer conditions were modified to enhance protein stability by replacing TritonX with 0.05% Tween20 and increasing NaCl to 200 mM. The compounds were screened against 0.31 nM DCN1 and 40 nM FAM-labeled probe in a 40 ul reaction volume. The TR-FRET ratio between Tb-DCN1 and the FAM-labeled probe was measured in a 384-well opti-plate (Perkin Elmer) using a plate reader (BMG) at after treatment with compound (final DMSO concentration of 0.1%). The ratio was normalized to the high (DCN1 and FAM-probe) and low (DCN1 and no probe) controls for a readout of % activity (=100*(x−low)/(high−low)).
# The Kinact and KI measurements were taken to allow for continuous reads over 24 hrs. Plates were read every 5 min up to 1 hr, every 15 min up to 5 hr, and every hour up to […]. Kinact and KI were calculated based on the following equations (Krippendorff B F, et al. Mechanism-based inhibition: deriving K(I) and k(inact) directly from time-dependent IC(50) values. J BiomolScreen. 2009; Mons E et al. A Comprehensive Guide for Assessing Covalent Inhibition in Enzymatic Assays Illustrated with Kinetic Simulations. CurrProtoc. 2022) where the KM of the probe against DCN2 is 21.62 nM. The Kinact and KI values could be estimated from the tight curves of the IC50 values over time.
# [5] = 24 hr after treatment with compound, read-out: TR FRET IC50 24 hr
# [6] = read-out: TR FRET IC50 1 hr, 1 hr after treatment with compound
# DCN2 (DCUND2) protein PONY domain, sequence (Q6PH85 60-248): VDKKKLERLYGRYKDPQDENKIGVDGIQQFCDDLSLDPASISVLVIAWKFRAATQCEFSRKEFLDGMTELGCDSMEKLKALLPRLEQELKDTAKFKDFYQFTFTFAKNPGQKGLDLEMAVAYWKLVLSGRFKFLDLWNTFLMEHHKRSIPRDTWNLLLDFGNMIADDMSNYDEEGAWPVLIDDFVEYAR
# T1 sequence (Q96GG9 60-248): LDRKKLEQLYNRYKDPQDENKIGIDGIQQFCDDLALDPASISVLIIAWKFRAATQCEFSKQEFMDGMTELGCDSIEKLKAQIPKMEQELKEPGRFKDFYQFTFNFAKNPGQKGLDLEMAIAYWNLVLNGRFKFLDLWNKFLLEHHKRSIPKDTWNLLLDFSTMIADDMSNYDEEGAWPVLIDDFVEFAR
# DCN1 protein, sequence (Q96GG9 whole entry): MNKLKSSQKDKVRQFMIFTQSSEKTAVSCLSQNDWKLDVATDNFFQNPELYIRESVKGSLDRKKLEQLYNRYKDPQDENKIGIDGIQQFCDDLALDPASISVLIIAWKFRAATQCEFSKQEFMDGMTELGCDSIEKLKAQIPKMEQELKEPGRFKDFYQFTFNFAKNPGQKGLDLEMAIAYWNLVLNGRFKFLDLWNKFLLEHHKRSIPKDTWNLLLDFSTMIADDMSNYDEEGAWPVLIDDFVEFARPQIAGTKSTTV
Structure (SMILES),% Adduct Formation (DCN1 protein),EC50 (fetal hemoglobin protein) [nM],Hemoglobin HPLC Ymax obs (%) (fetal hemoglobin protein),"IC50 [1, 5] [nM]","IC50 [1, 6] [nM]",IC50 [2] [nM],"IC50 ([1]; TR FRET IC50 1 hr (nM), 1 hr after treatment with compound) [nM]",Category ([3]; binding mode category from off-rate assay),"residence time ([3]; inverse of rate constant K, jump dilution TR-FRET) [min]","koff ([3]; jump dilution, Cy5 covalent probe 150 nM, TR-FRET) [s⁻¹]","half-life ([3]; ln(2)/K, jump dilution TR-FRET) [min]",kinact/KI ([4]; read-out: Kinact/KI (converted)) [M⁻¹ s⁻¹],Ki [4] [nM],kinact ([4]; read-out: Kinact (converted)) [s⁻¹],kinact/KI [4] [nM − 1 * min − 1],kinact [4] [min^ − 1]
CCN1C(=O)[C@@H](NC(=O)c2cccc(C(F)(F)F)c2)C(c2ccc(F)cc2)c2c(C(=O)N(CC#N)C3COC3)nn(-c3ccccc3)c21 (mixture of isomers) [Compound I-285],+++ (MS Emax % adduct formation greater than 80.0 and less than or equal to 100.0),≤ 50,++ (Hemoglobin HPLC Ymax greater than 65.0 and less than or equal to 100.0),≤ 200,≤ 200,≤ 100,–,–,–,–,–,–,–,–,–,–
"CCN1C(=O)[C@@H](NC(=O)c2cccc(C(F)(F)F)c2)[C@@H](c2ccc(F)cc2)c2c(C(=O)N(C)CC#N)nn(-c3ccccc3)c21 (racemic) [Compound I-5, rac-(4R,5R)—N-(cyanomethyl)-7-ethyl-4-(4-fluorophenyl)-N-methyl-6-oxo-1-phenyl-5-(3-(trifluoromethyl)benzamido)-4,5,6,7-tetrahydro-1H-pyrazolo[3,4-b]pyridine-3-carboxamide]",+++ (MS Emax % adduct formation greater than 80.0 and less than or equal to 100.0),50 to 200,++ (Hemoglobin HPLC Ymax greater than 65.0 and less than or equal to 100.0),≤ 200,–,≤ 100,≤ 200,–,–,–,–,–,–,–,–,–
"CCN1C(=O)[C@@H](NC(=O)c2cccc(C(F)(F)F)c2)[C@@H](C2CC2)c2c(C(=O)N3C[C@H](NC)C[C@H]3C#N)nn(C3CCOCC3)c21 [Compound I-425, N-((4S,5S)-3-((2S,4R)-2-cyano-4-(methylamino)pyrrolidine-1-carbonyl)-4-cyclopropyl-7-ethyl-6-oxo-1-(tetrahydro-2H-pyran-4-yl)-4,5,6,7-tetrahydro-1H-pyrazolo[3,4-b]pyridin-5-yl)-3-(trifluoromethyl)benzamide]",–,–,–,≤ 200,≤ 200,≤ 100,–,fast reversible,76,0.000219,52.69,5000,21.6,0.000115,–,–
"C=C(CN1CCOCC1)C(=O)NC[C@@H](NC(=O)[C@H](Cc1nc2ccc(C(C)C)cc2s1)NC(=O)CC)C1CCCCC1 [DI-1548, reference compound]",–,–,–,–,–,–,–,–,–,–,–,–,0.355,–,0.9971,0.3536

# Reference: patent US20250163057A1, “DCN-1 MODULATING COMPOUNDS AND METHODS OF USE THEREOF” (Cellarity, Inc., priority 2023, published 2025)
